Measurements published in patent EP0123700A1, “Substituted picolinic acids, processes for their preparation, their use, and pharmaceutical preparations containing them” (Byk Gulden Lomberg Chemische Fabrik GmbH, priority 1983, dated 1984).
Several values for one entry are separate records, joined by “and”; a condition that tells them apart may be missing. Equal entries are not always repeated.

Columns and labels:
[1] = system: genetisch hypertonen Ratten; experiment: Antihypertensive effect: systolic blood pressure (tail cuff) in conscious genetically hypertensive rats, oral dosing once daily on four consecutive days; assay type: in vivo, Ratten (Stamm SHR/N/Ibm/Bm); conditions: for Th.W. (Therapeutische Wirksamkeit): mean of quotient over the doses of Table I
Method: Zur Bestimmung der äntihypertensiven Wirkung werden die unten aufgeführten Verbindungen in den angegebenen Dosen an vier aufeinander folgenden Tagen an je 6 Ratten (Stamm SHR/N/Ibm/Bm, ♂, 250-350 g) mit genetisch bedingtem Hochdruck (RR > 180 mmHg) täglich einmal mittels Schlundsonde verabfolgt. Die Messung des Blutdrucks erfolgt jeweils 2, 6 und gegebenenfalls 24 Stunden nach Substanzgabe.
Die Blutdruckmessung wird in einer Wärmekammer bei 36°C vorgenommen, um eine bessere Durchblutung der Schwanzarterie zu erreichen. Hierzu werden die Tiere in perforierte Lochblechkäfige verbracht und 20 - 40 Min. nach Beginn der Aufwärmung gemessen. Zur Messung des systolischen arteriellen Drucks wird eine ringförmige Manschette mit aufblasbarer Gummimembran zur Unterbindung der Durchblutung und ein ringförmiger Piezökristallaufnehmer zur Erfassung der Pulswellen auf den Schwanz aufgeschoben. Nach erfolgter Unterbindung des Blutstroms in der Schwanzarterie wird der Manschettendruck kontinuierlich reduziert. […] Pulssignale und Druckverlauf werden zur Auswertung graphisch aufgezeichnet.
Zur Gewöhnung an den Meßvorgang werden die Tiere vor Substanzprüfung 14 Tage traniniert. In der zweiten Trainingswoche werden Blutdruck-Vorwerte erhoben. Tiergruppen, die Substanz erhälten, werden gegen eine Kontrollgruppe geprüft.

[2] = Oral toxicity (LD50) in mice, 14 days observation; assay type: in vivo; conditions: mouse, in vivo, N=5/dose
Source text: (§1) Die Toxizitätsuntersuchungen werden an weiblichen NMRI-Mäusen (Körpergewicht 22 - 26 g) durchgeführt. Die Tiere (5 Tiere pro Dosis) erhalten Futter und Wasser ad libitum. Verschiedene Dosen der Substanzen werden oral verabreicht. Die Beobachtungsdauer beträgt 14 Tage. Die LD50, d.h. die Dosis bei der 50% der Tiere sterben, wird aus der Dosiswirkungskurve graphisch ermittelt.

weiblichen NMRI-Mäusen = experiment: Oral toxicity (LD50) in mice, 14 days observation; assay type: in vivo; conditions: N=5/dose
Source text: as §1

[3] = day 1 (2h, 6h and 24h Th.W. averaged), normalised to Th.W. Fusarsäure = 1
[4] = day 2, normalised to Th.W. Fusarsäure = 1
[5] = day 3 (6h and 24h Th.W. averaged), normalised to Th.W. Fusarsäure = 1
[6] = day 4 (2h and 6h Th.W. averaged), normalised to Th.W. Fusarsäure = 1

CCN(CC)CCCOC(=O)c1ccc(-c2ccccc2)cn1 [Beispiel 4]
Th.I. Fusarsäure = 1 [1, 3]: 10,9
Th.I. Fusarsäure = 1 [1, 4]: 7,2
Th.I. Fusarsäure = 1 [1, 5]: 6,5
Th.I. Fusarsäure = 1 [1, 6]: 3,3

CCN(CC)CCCNC(=O)c1ccc(-c2ccc(Cl)cc2)cn1 [Beispiel 9]
LD50 at 336 h [2]: > 1000 mg/kg

CCCCc1ccc(C(=O)OCCCN(C)C)nc1 [lfd. Nr. 3, 5-n-Butylpyridin-2-carbonsäure-(3-dimethylaminopropyl)-ester]
BP (%-Änderungen) ([1]; 20,0 mg/kg p.o., day 1, 2h, listed as 2): -5% and -8%
BP (%-Änderungen) ([1]; 20,0 mg/kg p.o., day 1, 6h, listed as 2): -10% and -13%
BP (%-Änderungen) ([1]; 20,0 mg/kg p.o., day 1, 24h): 0%
BP (%-Änderungen) ([1]; 20,0 mg/kg p.o., day 2, 6h, listed as 2): -6% and -9%
BP (%-Änderungen) ([1]; 20,0 mg/kg p.o., day 3, 6h, listed as 2): -4% and -7%
BP (%-Änderungen) ([1]; 20,0 mg/kg p.o., day 3, 24h): -2%
BP (%-Änderungen) ([1]; 20,0 mg/kg p.o., day 4, 2h, listed as 2): -5% and -8%
BP (%-Änderungen) ([1]; 20,0 mg/kg p.o., day 4, 6h, listed as 2): -7% and -10%
Th.I. Fusarsäure = 1 [1, 3]: 4,3
Th.W. (Therapeutische Wirksamkeit) ([1]; day 1, 2h): -5,6 %-Änderung BP / µmol/kg x 100
Th.W. (Therapeutische Wirksamkeit) ([1]; day 1, 6h): -10,3 %-Änderung BP / µmol/kg x 100
Th.W. (Therapeutische Wirksamkeit) ([1]; day 1, 24h): 1,3 %-Änderung BP / µmol/kg x 100
Th.W. (Therapeutische Wirksamkeit) ([1]; day 2, 6h): -6,7 %-Änderung BP / µmol/kg x 100
Th.I. Fusarsäure = 1 [1, 4]: 5,2
Th.I. Fusarsäure = 1 [1, 5]: 2,5
Th.W. (Therapeutische Wirksamkeit) ([1]; day 3, 6h): -4,5 %-Änderung BP / µmol/kg x 100
Th.W. (Therapeutische Wirksamkeit) ([1]; day 3, 24h): 0,4 %-Änderung BP / µmol/kg x 100
Th.I. Fusarsäure = 1 [1, 6]: 1,1
Th.W. (Therapeutische Wirksamkeit) ([1]; day 4, 2h): -5,6 %-Änderung BP / µmol/kg x 100
Th.W. (Therapeutische Wirksamkeit) ([1]; day 4, 6h): -7,6 %-Änderung BP / µmol/kg x 100

CCN(CC)CCCOC(=O)c1ccc(-c2ccccc2)cn1 [lfd. Nr. 4, 5-Phenylpyridin-2-carbonsäure-(3-diethylaminopropyl)-ester]
BP (%-Änderungen) ([1]; 10,0 mg/kg p.o., day 1, 2h): -4%
BP (%-Änderungen) ([1]; 10,0 mg/kg p.o., day 1, 6h): -10%
BP (%-Änderungen) ([1]; 10,0 mg/kg p.o., day 1, 24h): -6%
BP (%-Änderungen) ([1]; 10,0 mg/kg p.o., day 2, 6h): -10%
BP (%-Änderungen) ([1]; 10,0 mg/kg p.o., day 3, 6h): -13%
BP (%-Änderungen) ([1]; 10,0 mg/kg p.o., day 3, 24h): -12%
BP (%-Änderungen) ([1]; 10,0 mg/kg p.o., day 4, 2h): -13%
BP (%-Änderungen) ([1]; 10,0 mg/kg p.o., day 4, 6h): -12%
BP (%-Änderungen) ([1]; 20,0 mg/kg p.o., day 1, 2h): -3%
BP (%-Änderungen) ([1]; 20,0 mg/kg p.o., day 1, 6h): -2%
BP (%-Änderungen) ([1]; 20,0 mg/kg p.o., day 1, 24h): -6%
BP (%-Änderungen) ([1]; 20,0 mg/kg p.o., day 2, 6h): -8%
BP (%-Änderungen) ([1]; 20,0 mg/kg p.o., day 3, 6h): -14%
BP (%-Änderungen) ([1]; 20,0 mg/kg p.o., day 3, 24h): -5%
BP (%-Änderungen) ([1]; 20,0 mg/kg p.o., day 4, 2h): -6%
BP (%-Änderungen) ([1]; 20,0 mg/kg p.o., day 4, 6h): -9%
Th.I. Fusarsäure = 1 ([1]; day 1 (2h, 6h and 24h Th.W. averaged), normalised to Th.W. Fusarsäure = 1, listed as 5): 16,2
Th.W. (Therapeutische Wirksamkeit) ([1]; day 1, 2h): -11,8 %-Änderung BP / µmol/kg x 100
Th.W. (Therapeutische Wirksamkeit) ([1]; day 1, 6h): -23,7 %-Änderung BP / µmol/kg x 100
Th.W. (Therapeutische Wirksamkeit) ([1]; day 1, 24h): -19,4 %-Änderung BP / µmol/kg x 100
Th.W. (Therapeutische Wirksamkeit) ([1]; day 2, 6h): -30,2 %-Änderung BP / µmol/kg x 100
Th.I. Fusarsäure = 1 ([1]; day 2, normalised to Th.W. Fusarsäure = 1, listed as 5): 23,2
Th.I. Fusarsäure = 1 ([1]; day 3 (6h and 24h Th.W. averaged), normalised to Th.W. Fusarsäure = 1, listed as 5): 22,5
Th.W. (Therapeutische Wirksamkeit) ([1]; day 3, 6h): -43,1 %-Änderung BP / µmol/kg x 100
Th.W. (Therapeutische Wirksamkeit) ([1]; day 3, 24h): -31,2 %-Änderung BP / µmol/kg x 100
Th.I. Fusarsäure = 1 ([1]; day 4 (2h and 6h Th.W. averaged), normalised to Th.W. Fusarsäure = 1, listed as 5): 6,0
Th.W. (Therapeutische Wirksamkeit) ([1]; day 4, 2h): -34,5 %-Änderung BP / µmol/kg x 100
Th.W. (Therapeutische Wirksamkeit) ([1]; day 4, 6h): -35,5 %-Änderung BP / µmol/kg x 100

COc1ccccc1N1CCN(CCCNC(=O)c2ccc(-c3ccccc3)cn2)CC1 [lfd. Nr. 5, 5-Phenylpyridin-2-carbonsäure-(3-[4-(2-methoxyphenyl)-piperazinyl-1]-propyl)-amid]
BP (%-Änderungen) ([1]; 6,4 mg/kg p.o., day 1, 2h): -19%
BP (%-Änderungen) ([1]; 6,4 mg/kg p.o., day 1, 6h): -14%
BP (%-Änderungen) ([1]; 6,4 mg/kg p.o., day 1, 24h): -20%
BP (%-Änderungen) ([1]; 6,4 mg/kg p.o., day 2, 6h): -12%
BP (%-Änderungen) ([1]; 6,4 mg/kg p.o., day 3, 6h): -11%
BP (%-Änderungen) ([1]; 6,4 mg/kg p.o., day 3, 24h): -5%
BP (%-Änderungen) ([1]; 6,4 mg/kg p.o., day 4, 2h): -16%
BP (%-Änderungen) ([1]; 6,4 mg/kg p.o., day 4, 6h): -24%
BP (%-Änderungen) ([1]; 25,6 mg/kg p.o., day 1, 2h): -26%
BP (%-Änderungen) ([1]; 25,6 mg/kg p.o., day 1, 6h): -20%
BP (%-Änderungen) ([1]; 25,6 mg/kg p.o., day 1, 24h): -14%
BP (%-Änderungen) ([1]; 25,6 mg/kg p.o., day 2, 6h): -12%
BP (%-Änderungen) ([1]; 25,6 mg/kg p.o., day 3, 6h): -12%
BP (%-Änderungen) ([1]; 25,6 mg/kg p.o., day 3, 24h): -3%
BP (%-Änderungen) ([1]; 25,6 mg/kg p.o., day 4, 2h): -12%
BP (%-Änderungen) ([1]; 25,6 mg/kg p.o., day 4, 6h): -22%
Th.I. Fusarsäure = 1 [1, 3]: 70,6
Th.W. (Therapeutische Wirksamkeit) ([1]; day 1, 2h): -89,8 %-Änderung BP / µmol/kg x 100
Th.W. (Therapeutische Wirksamkeit) ([1]; day 1, 6h): -66,9 %-Änderung BP / µmol/kg x 100
Th.W. (Therapeutische Wirksamkeit) ([1]; day 1, 24h): -82,7 %-Änderung BP / µmol/kg x 100
Th.W. (Therapeutische Wirksamkeit) ([1]; day 2, 6h): -52,8 %-Änderung BP / µmol/kg x 100
Th.I. Fusarsäure = 1 [1, 5]: 21,1
Th.W. (Therapeutische Wirksamkeit) ([1]; day 3, 6h): -49,3 %-Änderung BP / µmol/kg x 100
Th.W. (Therapeutische Wirksamkeit) ([1]; day 3, 24h): -20,3 %-Änderung BP / µmol/kg x 100
Th.I. Fusarsäure = 1 [1, 6]: 14,7
Th.W. (Therapeutische Wirksamkeit) ([1]; day 4, 2h): -66,9 %-Änderung BP / µmol/kg x 100
Th.W. (Therapeutische Wirksamkeit) ([1]; day 4, 6h): -103,9 %-Änderung BP / µmol/kg x 100
LD50 p.o. (weiblichen NMRI-Mäusen): ≫ 1000 mg/kg

CN(C)CCCNC(=O)c1ccc(-c2ccccc2)cn1 [lfd. Nr. 6, 5-Phenylpyridin-2-carbonsäure-(3-dimethylaminopropyl)-amid]
BP (%-Änderungen) ([1]; 6,4 mg/kg p.o., day 1, 2h, listed as 11): +2%
BP (%-Änderungen) ([1]; 6,4 mg/kg p.o., day 1, 6h, listed as 11): -1%
BP (%-Änderungen) ([1]; 6,4 mg/kg p.o., day 1, 24h, listed as 11): +10%
BP (%-Änderungen) ([1]; 6,4 mg/kg p.o., day 2, 6h, listed as 11): -14%
BP (%-Änderungen) ([1]; 6,4 mg/kg p.o., day 3, 6h, listed as 11): -10%
BP (%-Änderungen) ([1]; 6,4 mg/kg p.o., day 3, 24h, listed as 11): +4%
BP (%-Änderungen) ([1]; 6,4 mg/kg p.o., day 4, 6h, listed as 11): -10%
BP (%-Änderungen) ([1]; 25,6 mg/kg p.o., day 1, 2h, listed as 11): -7%
BP (%-Änderungen) ([1]; 25,6 mg/kg p.o., day 1, 6h, listed as 11): -9%
BP (%-Änderungen) ([1]; 25,6 mg/kg p.o., day 1, 24h): +4%
BP (%-Änderungen) ([1]; 25,6 mg/kg p.o., day 2, 6h, listed as 11): +3%
BP (%-Änderungen) ([1]; 25,6 mg/kg p.o., day 3, 6h, listed as 11): -15%
BP (%-Änderungen) ([1]; 25,6 mg/kg p.o., day 3, 24h, listed as 11): -10%
Th.I. Fusarsäure = 1 ([1]; day 1 (2h, 6h and 24h Th.W. averaged), normalised to Th.W. Fusarsäure = 1, listed as 11): -25,7
Th.W. (Therapeutische Wirksamkeit) ([1]; day 1, 2h): 0,9 %-Änderung BP / µmol/kg x 100
Th.W. (Therapeutische Wirksamkeit) ([1]; day 1, 6h): -11,8 %-Änderung BP / µmol/kg x 100
Th.W. (Therapeutische Wirksamkeit) ([1]; day 1, 24h): 39,9 %-Änderung BP / µmol/kg x 100
Th.W. (Therapeutische Wirksamkeit) ([1]; day 2, 6h): -48,0 %-Änderung BP / µmol/kg x 100
Th.I. Fusarsäure = 1 ([1]; day 2, normalised to Th.W. Fusarsäure = 1, listed as 11): 36,9
Th.I. Fusarsäure = 1 ([1]; day 3 (6h and 24h Th.W. averaged), normalised to Th.W. Fusarsäure = 1, listed as 11): 8,0
Th.W. (Therapeutische Wirksamkeit) ([1]; day 3, 6h): -49,9 %-Änderung BP / µmol/kg x 100
Th.W. (Therapeutische Wirksamkeit) ([1]; day 3, 24h): 23,6 %-Änderung BP / µmol/kg x 100
Th.I. Fusarsäure = 1 ([1]; day 4 (2h and 6h Th.W. averaged), normalised to Th.W. Fusarsäure = 1, listed as 11): 5,2
Th.W. (Therapeutische Wirksamkeit) ([1]; day 4, 6h): -36,2 %-Änderung BP / µmol/kg x 100
